Reference: article PMC12723204, “Mitochondrial Dysfunction Induced by a Novel Salicylate‐Based 1,2,3‐Triazole Salt With Potent Antileishmanial Activity” (Chemical Biology & Drug Design, 2025)
Entries after “also recorded” stand apart in the source; their conditions may differ.

Legend:
[1] = system: peritoneal murine macrophages; set-up: method as in Meinel et al. ([2020]); conditions: murine macrophage cells; ref Meinel et al. ([2020]); cited from earlier work
[2] = system: L. amazonensis intracellular amastigotes; assay: Activity against intracellular amastigote forms of L. amazonensis in peritoneal macrophages (Giemsa counting); format: cell-based, Leishmania amazonensis; conditions: for IC50: Leishmania amazonensis, Peritoneal macrophage, intracellular amastigotes in murine peritoneal macrophages, 72 h; for SI (Selectivity Index): CC50 of peritoneal murine macrophages/IC50 L. amazonensis amastigotes
Protocol: Peritoneal macrophages were obtained from BALB/c mice previously inoculated with 3% thioglycollate medium (da Trindade Granato et al. [2018]). The macrophages (2 × 10^6 cells/mL) were then allowed to adhere in 24‐well culture plates for 16 h at 37°C in a 5% CO2 atmosphere. After rinsing with phosphate‐buffered saline (PBS), the adhered macrophages were infected with stationary‐phase promastigotes of L. amazonensis at a 10:1 parasite‐to‐macrophage ratio for 4 h at 33°C. After several washes to remove non‐adherent promastigotes, the cells were either left untreated (negative control) or treated with the compounds (3.125–100.000 μM). Following a 72 h treatment period, the infected macrophages were fixed in ethanol, stained with Giemsa, and 200 macrophages were counted to determine the number of intracellular amastigotes. The GraFit software was used to determine the IC50, which was the outcome of three separate trials conducted in duplicate.

[3] = Cytotoxicity against mammalian cells (MTT); format: cell-based, BALB/c mice; conditions: BALB/c, mouse; peritoneal murine macrophages, 72 h, MTT
Protocol: (§1) After being prepared as previously mentioned, murine peritoneal macrophages obtained from BALB/c mice were either left untreated (negative control) or treated with the compounds (3.125–100.000 μM). Using a spectrophotometer (Multiskan EX, Thermo Electron Corporation, Vantaa, Finland) set to 570 nm, cell viability was assessed after 72 h of treatment using the MTT method (Mosmann [1983]). A cytotoxic concentration for 50% of the cell population (CC50) was used to express the results. The reference medication was miltefosine (Cayman Chemical Company, Ann Arbor, MI, USA). The assays were performed in three independent experiments in duplicate. The selectivity index was calculated by […].

[4] = Cytotoxicity in human red blood cells (hemolytic assay); format: cell-based; conditions: human erythrocytes (1% suspension), 200.00 μM (maximum concentration tested)
Protocol: (§2) Blood cells were centrifuged at 1500 rpm, the plasma and leukocytes were discarded, and the erythrocytes were washed in PBS. Then, the cells were diluted to a concentration of 1%, plated in 96‐well plates, and untreated or treated with the compound 7 at different concentrations (0.09–200.00 μM). The plate was incubated for 24 h at 37°C, and then centrifuged at 2000 rpm for 1 min. The supernatant was collected, and the absorbance (Abs) was determined in a spectrophotometer (Multiskan EX, Thermo Electron Corporation, Vantaa, Finland) at 540 nm. Untreated cells were considered the negative control. For the positive control, 0.2% saponin in deionized water was used.

[5] = system: L. amazonensis promastigotes; assay: Activity against promastigotes of L. amazonensis (MTT); format: cell-based; conditions: Leishmania amazonensis, 72 h, read-out: Promastigote IC50
Protocol: Promastigotes of L. amazonensis (IFLA/BR/67/PH8) were cultivated in brain heart infusion ([…] José dos […], Brazil) supplemented with bovine hemin (Sigma-Aldrich, St. Louis, MO, USA), folic acid (Sigma-Aldrich, St. Louis, MO, USA), inactivated fetal bovine serum (Cultilab, São Paulo, Brazil), and penicillin/streptomycin solution (Sigma-Aldrich, St. Louis, MO, USA). The cells were kept at 25°C in a BOD incubator. […] Louis, MO, USA; Mosmann [1983]). The viability of parasites was measured using a spectrophotometer (Multiskan EX-Thermo Electron Corporation, Vantaa, Finland) at 570 nm. The values were expressed as an inhibitory concentration capable of inhibiting 50% (IC50) of cell growth by using GraFit 5 software (Erithacus Software Ltda). […] Paulo, SP, Brazil) were used as reference drugs. All assays were run in triplicate across three separate trials.

[6] = system: peritoneal murine macrophages; assay: Cytotoxicity against mammalian cells (MTT); format: cell-based, BALB/c mice; conditions: comparator from Meinel et al. [2020]
Protocol: as §1

human erythrocytes = assay: Cytotoxicity in human red blood cells (hemolytic assay); format: cell-based; conditions: 24 h, 0.09–200.00 μM
Protocol: as §2

[7] = system: L. amazonensis promastigotes; assay: Total ROS production (H2DCFDA); format: cell-based, Leishmania amazonensis
Protocol: (§3) To measure ROS and mitochondrial ROS (superoxide) levels, L. amazonensis promastigotes (5 × 10^6 cells) were exposed to compound 7 (1.25 and 2.50 μM) for 6 and 24 h, following the methodology described by da Trindade Granato et al. ([2018]). Before the incubation, cells were washed with PBS and stained with 1 mM H2DCFDA (Invitrogen, Waltham, MA, USA) to measure total ROS. Fluorescence was measured after a 30‐min incubation with the dye using a fluorimeter (FLx800, BioTek Instruments Inc., Winooski, VT, USA) at an excitation/emission wavelength of 485/528 nm. As a positive control, cells were treated with 62.5 μM H2O2. To quantify mitochondrial superoxide, the MitoSOX Red indicator (Invitrogen, Molecular Probes, Eugene, Oregon, USA) was employed. Leishmania amazonensis promastigotes were treated with compound 7 (1.25 and 2.50 μM) for 6 and 24 h at 25°C. Cells were labeled with MitoSOX Red indicator at 5 μM and incubated for 20 min. Promastigotes incubated with antimycin A (10 μM) were used as the positive control. Fluorescence intensity was evaluated in a spectrofluorometer (FLx800, BioTek Instruments Inc., Winooski, VT, USA) at 540/600 nm of excitation/emission, respectively.

[8] = system: L. amazonensis promastigotes; assay: Mitochondrial superoxide (MitoSOX Red); format: cell-based, Leishmania amazonensis; conditions: for increase in mitochondrial superoxide: 6 h
Protocol: as §3

[9] = system: L. amazonensis promastigotes; assay: Mitochondrial membrane potential (JC-1); format: cell-based, Leishmania amazonensis; conditions: for mitochondrial membrane hyperpolarization: 24 h
Protocol: To evaluate mitochondrial membrane potential (MMP), L. amazonensis promastigotes (5 × 10^6 cells) were exposed to compound 7 (1.25 μM and 2.50 μM) for 6 and 24 h. After incubation, the cells were washed with PBS and stained with 5.00 μM JC‐1 (Coimbra et al. [2019]). After a 40‐min incubation with JC‐1, the cells were washed with Hank's solution, and fluorescence was measured using a fluorimeter (FLx800, BioTek Instruments Inc., Winooski, VT, USA) at excitation/emission wavelengths of 485/528 nm and 540/600 nm to detect fluorescence from monomers and J‐aggregates, respectively. As a positive control, cells were treated with 10.00 μM FCCP (Sigma‐Aldrich, St. Louis, MO, USA). MMP was assessed by calculating the ratio of fluorescence emitted by J‐aggregates to that of monomers.

[10] = system: L. amazonensis promastigotes; assay: Cell membrane integrity (propidium iodide); format: cell-based, Leishmania amazonensis; conditions: 24 h, 1.25 and 2.50 μM
Protocol: To evaluate cell membrane integrity, L. amazonensis promastigotes (5 × 10^6 cells) were treated with compound 7 (1.25 and 2.50 μM) for 24 h. After incubation, the cells were washed with PBS and stained with 0.20 μg/mL of propidium iodide (PI) (Sigma‐Aldrich, St. Louis, MO, USA) (da Trindade Granato et al. [2018]). Following a 15‐min incubation with PI, fluorescence was measured using a fluorimeter (FLx800) at an excitation/emission wavelength of 540/600 nm. Cells exposed to heat at 65°C for 10 min were used as a positive control.

SMILES | IC50 [2] | CC50 at 72 h [3] | IC50 [5] | SI (Selectivity Index) [2] | also measured
CCCCCCCCCCn1cc(COCC2CO2)[n+](C)n1.[I-] (stereo not drawn) [1‐decyl‐3‐methyl‐4‐((oxiran‐2‐ylmethoxy)methyl)‐1H‐1,2,3‐triazol‐3‐ium iodide] | – | – | – | – | fold lower cytotoxicity compared to its 4-hydroxy-substituted precursor [1]: approximately 2.5 fold
C[C@@H]1[C@H](O)[C@@H](C)/C=C/C=C/C=C/C=C/C=C/C=C/C=C/[C@H](O[C@@H]2O[C@H](C)[C@@H](O)[C@H](N)[C@@H]2O)C[C@@H]2O[C@](O)(C[C@@H](O)C[C@@H](O)[C@H](O)CC[C@@H](O)C[C@@H](O)CC(=O)O[C@H]1C)C[C@H](O)[C@H]2C(=O)O [Am B, amphotericin B, reference compound] | 85.8 ± 30.4 µM | 0.71 ± 0.22 µM | – | – | hemolysis at 24 h, 200 µM [4]: 95.9%
CCCCCCCCn1cc(COC(=O)c2ccccc2O)nn1 [Compound 2, (1‐Octyl‐1H‐1,2,3‐Triazol‐4‐Yl)methyl 2‐Hydroxybenzoate] | > 100 µM | > 150 µM | > 100 µM | – | –
CCCCCCCCCCn1cc(COC(=O)c2ccccc2O)nn1 [Compound 3, (1‐Decyl‐1H‐1,2,3‐Triazol‐4‐Yl)methyl 2‐Hydroxybenzoate] | > 100 µM | 70.2 ± 14.2 µM | > 100 µM | – | –
CCCCCCCCCCCCn1cc(COC(=O)c2ccccc2O)nn1 [Compound 4, (1‐Dodecyl‐1H‐1,2,3‐Triazol‐4‐Yl)methyl 2‐Hydroxybenzoate] | > 100 µM | > 150 µM | > 100 µM | – | –
CCCCCCCCCCCCCCn1cc(COC(=O)c2ccccc2O)nn1 [Compound 5, (1‐Tetradecyl‐1H‐1,2,3‐Triazol‐4‐Yl)methyl 2‐Hydroxybenzoate] | > 100 µM | > 150 µM | > 100 µM | – | –
CCCCCCCCCCCCCCCCn1cc(COC(=O)c2ccccc2O)nn1 [Compound 6, (1‐Hexadecyl‐1H‐1,2,3‐Triazol‐4‐Yl)methyl 2‐Hydroxybenzoate] | > 100 µM | > 150 µM | > 100 µM | – | –
CCCCCCCCn1cc(COC(=O)c2ccccc2O)[n+](C)n1.[I-] [Compound 7, 1‐Octyl‐4‐(((2‐Hydroxybenzoyl)oxy)methyl)‐3‐Methyl‐1H‐1,2,3‐Triazol‐3‐Ium Iodide] | 6.23 ± 0.35 µM | 111 ± 34.5 µM | 1.26 ± 0.27 µM | 17.81 | fold lower cytotoxicity compared to the 4-hydroxy-substituted precursor previously described [6]: 3.8 fold; hemolysis at 24 h, 200 µM [4]: 3.82%; hemolytic effect (in words) (human erythrocytes): no hemolytic effect; increase in total ROS ([7]; 6 h, 2× IC50 value (2.50 μM)): 56.54%; increase in total ROS ([7]; 6 h, IC50 value (1.25 μM)): 62.81%; increase in total ROS ([7]; 24 h, 2× IC50 value (2.50 μM)): 77.03%; increase in total ROS ([7]; 24 h, IC50 value (1.25 μM)): 79.87%; increase in mitochondrial superoxide ([8]; 2× IC50 value (2.50 μM)): 62.54%; increase in mitochondrial superoxide ([8]; IC50 value (1.25 μM)): 57.68%; mitochondrial superoxide levels (in words) ([8]; 24 h, 1.25 and 2.50 μM): no alteration; mitochondrial membrane potential (in words) ([9]; 6 h, 1.25 and 2.50 μM): no change; also recorded: without alterations; mitochondrial membrane hyperpolarization ([9]; 2× IC50 value (2.50 μM)): 29.66%; mitochondrial membrane hyperpolarization ([9]; IC50 value (1.25 μM)): 22.00%; membrane integrity, PI staining (in words) [10]: unaffected; also recorded: no significant alterations
CCCCCCCCCCn1cc(COC(=O)c2ccccc2O)[n+](C)n1.[I-] [Compound 8, 1‐Decyl‐4‐(((2‐Hydroxybenzoyl)oxy)methyl)‐3‐Methyl‐1H‐1,2,3‐Triazol‐3‐Ium Iodide] | 2.49 ± 0.5 µM | 0.31 ± 0.22 µM | 1.08 ± 0.18 µM | 0.12 | –
CCCCCCCCCCCCn1cc(COC(=O)c2ccccc2O)[n+](C)n1 [Compound 9, 1‐Dodedecyl‐4‐(((2‐Hydroxybenzoyl)oxy)methyl)‐3‐Methyl‐1H‐1,2,3‐Triazol‐3‐Ium Iodide] | 6.31 ± 1.86 µM | 1.34 ± 0.32 µM | 1.58 ± 0.12 µM | 0.21 | –
CCCCCCCCCCCCCCn1cc(COC(=O)c2ccccc2O)[n+](C)n1.[I-] [Compound 10, 1‐Tetradecyl‐4‐(((2‐Hydroxybenzoyl)oxy)methyl)‐3‐Methyl‐1H‐1,2,3‐Triazol‐3‐Ium Iodide] | 5.92 ± 2.24 µM | 2.37 ± 0.82 µM | 1.55 ± 0.34 µM | 0.40 | –
CCCCCCCCCCCCCCCCn1cc(COC(=O)c2ccccc2O)[n+](C)n1.[I-] [Compound 11, 1‐Hexadecyl‐4‐(((2‐Hydroxybenzoyl)oxy)methyl)‐3‐Methyl‐1H‐1,2,3‐Triazol‐3‐Ium Iodide] | 12.4 ± 1.86 µM | 4.01 ± 1.12 µM | 1.72 ± 0.02 µM | 0.32 | –
CCCCCCCCCCCCCCCCOP(=O)([O-])OCC[N+](C)(C)C [Miltefosine, reference compound] | 11.5 ± 1.79 µM | 151.81 ± 0.03 µM | 15.1 ± 2.08 µM | – | hemolysis at 24 h, 200 µM [4]: 95.9%
